The values below come from ChEMBL document CHEMBL3132769, “Fragment growing to retain or alter the selectivity of anchored kinase hinge-binding fragments” (Medchemcomm, 2014).

In assay [1] the target is T1, Serine/threonine-protein kinase D1 (Homo sapiens) (UniProt Q15139).
T1 sequence (whole entry): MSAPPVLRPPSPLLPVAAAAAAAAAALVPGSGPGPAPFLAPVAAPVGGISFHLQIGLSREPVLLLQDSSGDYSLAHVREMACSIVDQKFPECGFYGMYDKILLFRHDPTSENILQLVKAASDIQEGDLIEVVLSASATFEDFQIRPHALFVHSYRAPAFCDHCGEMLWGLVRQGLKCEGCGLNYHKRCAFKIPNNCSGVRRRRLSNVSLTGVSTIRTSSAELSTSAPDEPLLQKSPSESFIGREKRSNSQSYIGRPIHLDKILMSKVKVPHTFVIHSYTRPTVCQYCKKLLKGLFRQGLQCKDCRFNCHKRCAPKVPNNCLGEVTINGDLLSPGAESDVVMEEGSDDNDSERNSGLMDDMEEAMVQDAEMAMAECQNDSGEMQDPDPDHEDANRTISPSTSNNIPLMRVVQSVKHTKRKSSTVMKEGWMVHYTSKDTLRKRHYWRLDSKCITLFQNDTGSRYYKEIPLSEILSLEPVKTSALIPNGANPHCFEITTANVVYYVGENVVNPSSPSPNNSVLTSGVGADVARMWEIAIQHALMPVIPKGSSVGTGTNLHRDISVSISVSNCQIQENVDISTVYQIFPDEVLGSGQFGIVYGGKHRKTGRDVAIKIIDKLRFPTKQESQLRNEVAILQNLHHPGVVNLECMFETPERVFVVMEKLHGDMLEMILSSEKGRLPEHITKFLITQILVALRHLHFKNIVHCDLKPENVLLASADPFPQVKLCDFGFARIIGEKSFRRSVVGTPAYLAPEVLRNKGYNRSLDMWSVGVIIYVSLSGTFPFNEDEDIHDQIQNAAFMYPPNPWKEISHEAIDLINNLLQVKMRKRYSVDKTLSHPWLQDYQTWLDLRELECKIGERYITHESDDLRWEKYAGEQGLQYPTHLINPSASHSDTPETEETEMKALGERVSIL
The assay is described as follows: Inhibition of human full length PKD1 expressed in baculovirus assessed as substrate phosphorylation using fluorescence-labelled peptides as substrate at 0.06 uM after 90 mins by microfluidic peptide phosphorylation assay.

Assay [2] concerns the target Serine/threonine-protein kinase Chk2 (Homo sapiens) (UniProt O96017). The assay is described as follows: Inhibition of human full length CHK2 expressed in baculovirus assessed as substrate phosphorylation using fluorescence-labelled peptides as substrate at 0.06 uM after 90 mins by microfluidic peptide phosphorylation assay.
The target of assay [3] is Serine/threonine-protein kinase PAK 2 (Homo sapiens) (UniProt Q13177). The assay is described as follows: Inhibition of human truncated PAK2 expressed in Escherichia coli cell assessed as substrate phosphorylation using fluorescence-labelled peptides as substrate at 9 uM after 90 mins by microfluidic peptide phosphorylation assay.
Serine/threonine-protein kinase PAK 2 (Homo sapiens), sequence (Q13177 whole entry, the tested form may be a part): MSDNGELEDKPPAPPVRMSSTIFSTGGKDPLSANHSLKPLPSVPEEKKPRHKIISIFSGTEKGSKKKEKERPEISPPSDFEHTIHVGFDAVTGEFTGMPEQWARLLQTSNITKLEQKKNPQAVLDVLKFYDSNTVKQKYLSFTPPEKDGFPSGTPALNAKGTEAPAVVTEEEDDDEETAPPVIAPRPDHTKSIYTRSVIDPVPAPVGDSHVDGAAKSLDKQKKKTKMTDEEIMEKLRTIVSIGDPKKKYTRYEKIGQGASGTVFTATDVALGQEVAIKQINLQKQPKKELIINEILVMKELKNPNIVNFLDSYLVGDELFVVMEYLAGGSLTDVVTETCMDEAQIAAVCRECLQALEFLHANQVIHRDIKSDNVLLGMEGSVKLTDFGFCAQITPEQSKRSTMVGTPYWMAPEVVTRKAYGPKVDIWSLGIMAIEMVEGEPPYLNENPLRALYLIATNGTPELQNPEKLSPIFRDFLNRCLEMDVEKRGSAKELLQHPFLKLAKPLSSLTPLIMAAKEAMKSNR
In assay [4] the target is Serine/threonine-protein kinase Chk2 (Homo sapiens) (UniProt O96017). The assay is described as follows: Inhibition of human full length CHK2 expressed in baculovirus assessed as substrate phosphorylation using fluorescence-labelled peptides as substrate at 70 uM after 90 mins by microfluidic peptide phosphorylation assay.
Serine/threonine-protein kinase Chk2 (Homo sapiens), sequence (O96017 whole entry, the tested form may be a part): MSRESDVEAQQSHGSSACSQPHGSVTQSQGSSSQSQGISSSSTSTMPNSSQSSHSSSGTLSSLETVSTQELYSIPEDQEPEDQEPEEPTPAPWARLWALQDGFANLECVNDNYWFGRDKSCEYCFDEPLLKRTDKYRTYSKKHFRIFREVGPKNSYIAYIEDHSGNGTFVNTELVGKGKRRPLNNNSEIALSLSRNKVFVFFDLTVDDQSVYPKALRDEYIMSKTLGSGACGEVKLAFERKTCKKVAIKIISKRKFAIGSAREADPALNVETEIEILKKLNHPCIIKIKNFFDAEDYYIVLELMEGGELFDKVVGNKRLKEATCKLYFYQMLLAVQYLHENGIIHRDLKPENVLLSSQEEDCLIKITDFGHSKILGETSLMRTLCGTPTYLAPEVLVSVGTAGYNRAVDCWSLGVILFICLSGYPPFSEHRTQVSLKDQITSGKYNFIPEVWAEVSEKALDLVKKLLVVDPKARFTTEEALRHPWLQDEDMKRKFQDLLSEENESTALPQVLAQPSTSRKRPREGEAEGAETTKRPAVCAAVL
Assay [5] deals with T2, Inhibitor of nuclear factor kappa-B kinase subunit beta (Homo sapiens) (UniProt O14920).
T2 sequence (whole entry): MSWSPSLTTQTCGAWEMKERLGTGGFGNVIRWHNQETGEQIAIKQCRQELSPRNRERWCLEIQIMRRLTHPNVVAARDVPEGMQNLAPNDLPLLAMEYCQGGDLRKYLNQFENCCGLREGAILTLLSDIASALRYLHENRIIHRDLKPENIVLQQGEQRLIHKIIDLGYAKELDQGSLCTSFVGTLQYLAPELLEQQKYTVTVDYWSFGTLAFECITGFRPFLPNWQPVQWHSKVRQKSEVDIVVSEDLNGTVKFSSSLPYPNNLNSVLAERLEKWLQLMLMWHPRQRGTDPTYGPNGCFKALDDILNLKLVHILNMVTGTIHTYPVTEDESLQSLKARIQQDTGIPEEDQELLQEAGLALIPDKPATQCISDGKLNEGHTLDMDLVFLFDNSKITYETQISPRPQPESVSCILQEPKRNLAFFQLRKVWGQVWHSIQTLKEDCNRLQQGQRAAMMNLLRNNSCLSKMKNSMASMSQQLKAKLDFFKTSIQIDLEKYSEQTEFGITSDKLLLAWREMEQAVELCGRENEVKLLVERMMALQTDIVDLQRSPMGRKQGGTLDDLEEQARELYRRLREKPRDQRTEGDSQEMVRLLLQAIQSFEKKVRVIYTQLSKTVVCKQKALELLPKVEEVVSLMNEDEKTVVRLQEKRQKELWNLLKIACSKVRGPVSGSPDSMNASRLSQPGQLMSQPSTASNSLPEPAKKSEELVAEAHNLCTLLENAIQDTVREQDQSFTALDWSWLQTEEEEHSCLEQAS
The assay is described as follows: Inhibition of human full length IKK beta expressed in baculovirus assessed as substrate phosphorylation using fluorescence-labelled peptides as substrate at 2 uM after 90 mins by microfluidic peptide phosphorylation assay.

The target in assay [6] is T3, Serine/threonine-protein kinase D2 (Homo sapiens) (UniProt Q9BZL6).
T3 sequence (whole entry): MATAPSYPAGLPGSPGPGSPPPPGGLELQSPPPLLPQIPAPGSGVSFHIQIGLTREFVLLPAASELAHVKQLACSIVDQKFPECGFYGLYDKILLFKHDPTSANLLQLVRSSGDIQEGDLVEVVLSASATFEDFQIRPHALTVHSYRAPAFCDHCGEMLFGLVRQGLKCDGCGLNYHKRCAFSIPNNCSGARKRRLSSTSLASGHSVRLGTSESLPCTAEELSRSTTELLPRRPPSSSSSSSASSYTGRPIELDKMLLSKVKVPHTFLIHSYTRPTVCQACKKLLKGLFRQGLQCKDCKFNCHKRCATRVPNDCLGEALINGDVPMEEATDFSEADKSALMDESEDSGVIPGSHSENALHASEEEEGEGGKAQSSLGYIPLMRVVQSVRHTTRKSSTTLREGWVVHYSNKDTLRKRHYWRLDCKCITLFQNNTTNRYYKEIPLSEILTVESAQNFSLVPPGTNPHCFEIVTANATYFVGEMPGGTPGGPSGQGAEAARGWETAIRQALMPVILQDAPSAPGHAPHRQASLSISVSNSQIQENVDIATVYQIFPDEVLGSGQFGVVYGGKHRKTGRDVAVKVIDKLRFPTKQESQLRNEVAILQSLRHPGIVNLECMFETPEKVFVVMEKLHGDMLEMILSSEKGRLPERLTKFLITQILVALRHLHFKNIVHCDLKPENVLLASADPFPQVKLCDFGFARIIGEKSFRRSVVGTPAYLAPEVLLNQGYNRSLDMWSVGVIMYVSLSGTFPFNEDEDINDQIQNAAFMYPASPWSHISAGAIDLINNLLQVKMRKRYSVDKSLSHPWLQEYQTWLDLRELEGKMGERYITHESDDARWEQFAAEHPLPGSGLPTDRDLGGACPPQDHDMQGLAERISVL
Kind of assay: Inhibition of human full length PKD2 expressed in baculovirus assessed as substrate phosphorylation using fluorescence-labelled peptides as substrate at 95 uM after 90 mins by microfluidic peptide phosphorylation assay.

As usually defined, the inhibition is the relative decrease from the control value, in per cent. On to `NC1(Cc2ccc(Cl)cc2)CCN(c2ncnc3[nH]ccc23)CC1`, for which the inhibition in assay [1] is 32.5%; in assay [2], 0%.
With `NCC1CN(c2ncnc3[nH]c4cnccc4c23)CCO1` (stereo unspecified), the inhibition in assay [3] turned out to be 3%.
Regarding `CNCc1ccc(-c2ncnc3[nH]cnc23)cc1`, in assay [4], the inhibition came to 57.5%.
Consider `NC1CCN(c2ncnc3[nH]ccc23)CC1`, for which the inhibition in assay [5] was 1%.
With `NCCc1ccc(-c2ncnc3[nH]cnc23)cc1`, the inhibition in assay [6] amounted to 77.5%.
